“Also recorded” adds a separate entry of the source. Where two headings read alike, the source gives them in different places.
How the values were obtained:
[1] = molecular target: T1, recombinant H. pylori apourease (Helicobacter pylori, UniProt P69996); format: biochemical; settings: for effect of imidazole on activation by Ni++ and bicarbonate: imidazole 2.5-25 mM, 200 mM bicarbonate, 200 μM Ni++
[2] = Molecular stability and aggregation of urease by analytical size exclusion HPLC; settings: for effect of additive on molecular association of urease: dialysis against PBS and storage at 4° C.; for effect of blocking free sulfhydryl groups on molecular association of urease: treated urease in solution or dialyzed in PBS
[3] = molecular target: T1, recombinant H. pylori apourease; format: biochemical; settings: for activation of modified urease after removal of excess modifying agent: excess agent removed by diafiltration; for activation with Ni++ and bicarbonate of urease modified by the compound: urease modified before activation
[4] = molecular target: in vitro activated urease (Helicobacter pylori, UniProt P69996); format: biochemical
in vitro activated urease, sequence (P69996 whole entry, looked up): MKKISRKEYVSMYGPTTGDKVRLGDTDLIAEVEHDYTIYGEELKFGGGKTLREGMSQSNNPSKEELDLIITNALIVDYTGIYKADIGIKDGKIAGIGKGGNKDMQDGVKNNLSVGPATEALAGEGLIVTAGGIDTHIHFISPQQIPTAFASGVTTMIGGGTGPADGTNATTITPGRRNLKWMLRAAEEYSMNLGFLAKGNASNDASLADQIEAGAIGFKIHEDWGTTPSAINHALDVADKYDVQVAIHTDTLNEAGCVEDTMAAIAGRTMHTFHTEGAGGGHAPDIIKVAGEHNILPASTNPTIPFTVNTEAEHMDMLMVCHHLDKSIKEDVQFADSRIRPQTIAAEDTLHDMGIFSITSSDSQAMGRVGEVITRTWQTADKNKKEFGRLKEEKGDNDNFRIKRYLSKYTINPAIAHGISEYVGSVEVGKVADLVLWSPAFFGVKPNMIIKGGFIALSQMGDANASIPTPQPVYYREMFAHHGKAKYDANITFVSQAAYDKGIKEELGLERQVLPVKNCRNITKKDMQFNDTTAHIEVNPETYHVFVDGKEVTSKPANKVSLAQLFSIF

[5] = compound added along with activation buffer

T1 sequence (P69996 whole entry, looked up): as above

c1c[nH]cn1 [imidazole]
effect of imidazole on activation by Ni++ and bicarbonate [1]: inhibits urease activation | effect of imidazole on activation by Ni++ and bicarbonate ([1]; listed as Imidazole): inhibit the activation of recombinant urease in a concentration-dependent manner

O=C(O)CN(CCN(CC(=O)O)CC(=O)O)CC(=O)O [EDTA]
effect of additive on molecular association of urease [2]: did not have any significant effect

NC(=O)CI [iodoacetamide]
activation with compound included in the activation mixture [3, 5]: blocking of activation | activation of modified urease after removal of excess modifying agent [3]: not activated | activation with Ni++ and bicarbonate of urease modified by the compound [3]: not activated; also recorded: inhibits activation | effect of blocking free sulfhydryl groups on molecular association of urease [2]: stabilizing effect on urease in solution; also recorded: reduce the molecular associations; also recorded: stabilized the hexameric form of urease and prevented molecular association

[Fe+2] [Fe^++]
effect of other metal ion on activation of recombinant urease by Ni++ [3]: inhibited activation; also recorded: antagonistic effects | effect of other metal ion on Ni++ activation by native PAGE and silver staining [1]: inhibitory effect

[Mn+2] [Mn^++]
activation of recombinant urease by metal ion with bicarbonate [3]: resulted in activation of urease | effect of other metal ion on activation of recombinant urease by Ni++ [3]: enhanced the activation; also recorded: synergistic effect

[Cu+2] [Cu^++]
effect of other metal ion on activation of recombinant urease by Ni++ [3]: inhibited activation; also recorded: antagonistic effects | effect of other metal ion on Ni++ activation by native PAGE and silver staining [1]: inhibitory effect

[Co+2] [Co^++]
activation of recombinant urease by metal ion with bicarbonate [3]: do not cause urease activation | effect of other metal ion on activation of recombinant urease by Ni++ [3]: inhibit activation

[Mg+2] [Mg^++]
effect of other metal ion on activation of recombinant urease by Ni++ [3]: no detectable effect

CCN1C(=O)C=CC1=O [NEM, N-ethyl maleimide]
activation by bicarbonate and nickel of NEM-modified apourease ([3]; 9 mM NEM, room temperature, 60 minutes, 20 mM Hepes pH 7.5): not activated

O=[N+]([O-])c1ccc(F)c([N+](=O)[O-])c1 [DNFB, dinitrofluorobenzene]
activation with compound included in the activation mixture [3]: activation is blocked | in vitro activation after DNFB treatment for 5, 15, 30, and 60 minutes [3]: blocks in vitro activation | pH dependence of DNFB blocking of in vitro activation [3]: more effective at alkaline pH (pH>7.5) than at neutral or acidic pH; also recorded: pH-dependent | in vitro activation of apourease modified with DNFB ([3]; pH 8): blocked in vitro activation; also recorded: not activated | effect of DNFB on pre-activated urease activity [4]: inactivates pre-activated urease in a pH-dependent manner | effect of DNFB treatment on molecular stability ([2]; dialyzed against phosphate buffer overnight): stabilizes the hexameric form of urease

OCCS [β-mercaptoethanol]
effect of additive on molecular association of urease [2]: stabilized urease in the hexameric form; also recorded: prevented the molecular associations

O=C(O)c1cc(SSc2ccc([N+](=O)[O-])c(C(=O)O)c2)ccc1[N+](=O)[O-] [DTNB, 5-5′-dithio-bis-2-nitrobenzoic acid]
activation with compound included in the activation mixture [3, 5]: blocking of activation | activation of modified urease after removal of excess modifying agent [3]: not activated | activation with Ni++ and bicarbonate of urease modified by the compound [3]: not activated | effect of blocking free sulfhydryl groups on molecular association of urease [2]: stabilizing effect on urease in solution; also recorded: reduce the molecular associations; also recorded: stabilized the hexamer form of urease and prevented molecular association

[Ni+2] [Ni^++]
activation of recombinant urease by metal ion with bicarbonate [3]: resulted in activation of urease

OC[C@H]1O[C@@](CO)(O[C@H]2O[C@H](CO)[C@@H](O)[C@H](O)[C@H]2O)[C@@H](O)[C@@H]1O [Sucrose]
effect of additive on molecular association of urease [2]: significantly reduced the extent of aggregation

Source: patent US6709851B1, “Stabilization of helicobacter urease” (OraVax-Merieux Co., priority 1997, dated 2004)
